Test results published in the supplement of paper PMC3974653.
Counter-ions that a name gives are not always drawn.

Test system: MTT (mouse pheochromocytoma)
Assay: IC50 of cell viability (ATP content)
Conditions: (24 or 48 h)
Outline: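 MTT mouse pheochromocytoma cells (5 µl of 200,000 cells/ml per well, white 1536-well plates, DMEM with 5% FBS and 1% horse serum) were cultured overnight at 37°C, 5% CO2. They then received 23 nl library compound in DMSO by pintool at 8 concentrations (final 0.5 nM to 46 µM) for 24 or 48 hrs. CellTiter-Glo ATP luminescence was read after 15 minutes. Signals were normalised to positive-control (100% inhibition) and DMSO (0%) wells, and IC50 came from a four-parameter logistic fit.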

| Structure (SMILES) | IC50 of cell viability [µM] |
| --- | --- |
| C[N@@+]12CCC(CC1)[C@@H](C2)OC(=O)C(O)(C3=CC=CC=C3)C4=CC=CC=C4 [Clidinium bromide] | > 46 |
| CO/N=C(/C(=O)N[C@@H]1C(=O)N2C(C(=O)O)=C(C[n+]3ccc(N)n3CCO)CS[C@H]12)c1csc(N)n1 [CEFOSELIS SULFATE] | > 46 |
| CC(C)(C)CC(C)(C)c1cc(Cc2cc(C(C)(C)CC(C)(C)C)cc(-n3nc4ccccc4n3)c2O)c(O)c(-n2nc3ccccc3n2)c1 [BISOCTRIZOLE] | > 46 |
| CN(C)CCOC(c1ccc(Cl)cc1)c1ccccn1 (stereo unspecified) [Carbinoxamine maleate] | > 46 |
| CNC[C@H](O)c1ccc(O)c(O)c1 [EPINEPHRINE] | > 46 |
| NC(=O)CN1CCCC1=O [Piracetam] | > 46 |
| CCNC(C)Cc1ccc2c(c1)OCO2 (stereo unspecified) [(?)-N-Ethyl-3,4-methylenedioxyamphetamine] | > 46 |
| Oc1ccc2c3c1O[C@H]1[C@@H](O)CC[C@@]4(O)C(C2)N(CC2CCC2)CCC314 (stereo partly specified) [NALBUPHINE] | > 46 |
| CNC(C)CC1CCCCC1 (stereo unspecified) [Propylhexadrine] | > 46 |
| C[C@H]1[C@@H]2Cc3ccc(O)cc3[C@]1(C)CCN2C [(+)-Metazocine] | > 46 |
| CCNC(=O)/C=C/c1cccc(Br)c1 [CINROMIDUM] | > 46 |
| C[C@]12CC[C@H]3c4ccc(O)cc4CC[C@@H]3[C@H]1CC[C@@H]2OC(=O)CCC1CCCC1 [Depoestradiol] | > 46 |
| C[N+]1(C)C2CCC1CC(OC(=O)c1c[nH]c3ccccc13)C2.[I-] (stereo unspecified) [3-Tropanylindole-3-carboxylate methiodide] | > 46 |
| COCC1=C(C(=O)OC(C)OC(=O)OC(C)C)N2C(=O)[C@@H](NC(=O)/C(=N/OC)c3csc(N)n3)[C@H]2SC1 (stereo partly specified) [CEFPODOXIME PROXETIL] | > 46 |
| C[C@]12CC[C@H]3[C@@H](CCC/4=C/C(=O)CC[C@]34C)[C@@H]1CCC2=O [ANDROSTENEDIONE] | > 46 |
| CC(C)Nc1cccnc1N1CCN(C(=O)c2cc3cc(N[S+](C)(=O)[O-])ccc3[nH]2)CC1 [DELAVIRDINE MESYLATE] | > 46 |
| CC[C@@H]1[C@@H]2C[C@H]3[C@H]4N(C)c5ccccc5[C@@]45C[C@H]([C@H]2[C@H]5O)[N@@]3[C@H]1O [Ajmaline] | > 46 |
| C[C@H](NC(C)(C)C)C(=O)c1cccc(Cl)c1 [Bupropion hydrochloride] | > 46 |
| CCCCCCCCCCCCCCCCC(C(=O)O)C(O)(CC(=O)O)C(=O)O (stereo unspecified) [AGARICINUM] | > 46 |
| FC(F)(F)c1cccc(C2=CCN(CCc3ccc4ccccc4c3)CC2)c1 [XALIPRODEN HYDROCHLORIDE] | > 46 |

| Structure (SMILES) | IC50 of cell viability [µM] |
| --- | --- |
| CC(C)NCC(O)COc1ccc(COCCOC(C)C)cc1 (stereo unspecified) [Bisoprolol hemifumarate salt] | > 46 |
| Nc1ccc(C(=O)NCC(=O)O)cc1 [Aminohippuric acid] | > 46 |
| COc1cc(N)c(Cl)cc1C(=O)NC1CN2CCC1CC2 (stereo unspecified) [Zacopride hydrochloride] | > 46 |
| O.O.O.O.O.O.O.O=S(=O)([O-])[O-].[Co+2] [Cobalt sulfate heptahydrate] | > 46 |
| CC[C@H]1OC(=O)[C@H](C)[C@@H](O[C@H]2C[C@@](C)(OC)[C@@H](O)[C@H](C)O2)[C@H](C)[C@@H](O[C@@H]2O[C@H](C)C[C@H](N(C)C)[C@H]2O)[C@](C)(O)C[C@@H](C)[C@@H]2N[C@@H](COCCOC)O[C@H]([C@H]2C)[C@]1(C)O [DIRITHROMYCIN] | > 46 |
| CC(C)OC(=O)c1cc2c(OCC(O)CNC(C)(C)C)cccc2[nH]1 (stereo unspecified) | > 46 |
| C[N@+]1([O-])[C@H]2CC[C@H]1C[C@H](OC(=O)[C@@H](CO)c1ccccc1)C2 [Atropine oxide] | > 46 |
| Cc1cccc(Nc2ncccc2C(=O)O)c1C [ACIDUM NIXYLICUM] | > 46 |
| CC1(C)S[C@H]2[C@H](NC(=O)C3(N)CCCCC3)C(=O)[N@]2[C@H]1C(O)=O [Cyclacillin] | > 46 |
| C[C@H]1OC(OC2C(O)[C@@H](O)C(OC3C(O)[C@@H](O)C(O)O[C@@H]3CO)O[C@@H]2CO)[C@H](O)C(O)C1N[C@H]1C=C(CO)[C@@H](O)[C@H](O)C1O (stereo partly specified) [Acarbose] | > 46 |
| NC(Cc1ccc(Oc2cc(I)c(O)c(I)c2)c(I)c1)C(=O)O (stereo unspecified) [Triiodothyronine, reverse] | > 46 |
| CN1[C@@H]2CC[C@H]1CC(OC(c1ccccc1)c1ccccc1)C2.C[S+](=O)([O-])O (stereo partly specified) [Benztropine] | > 46 |
| CN[C@H](C)Cc1ccccc1 [S-(+)-Methamphetamine] | > 46 |
| Nc1c(CC(=O)[O-])cccc1C(=O)c1ccccc1 [Amfenac Sodium] | > 46 |
| CC(C)NCC(O)COc1ccc(COCCOC(C)C)cc1.CC(C)NCC(O)COc1ccc(COCCOC(C)C)cc1.O=C(O)/C=C/C(=O)O (stereo unspecified) [Bisoprolol hemifumarate salt] | > 46 |
| CCNc1nc(Cl)nc(NCC)n1 [SIMAZINE] | > 46 |
| O=[N+]([O-])c1cc(I)c(O)c(I)c1 [DISOPHENOL SODIUM] | > 46 |
| CCOC(=O)COc1ccc2c(C)c(CC[NH+](CC)CC)c(=O)oc2c1 [Chromonar hydrochloride] | > 46 |
| O=P1(N(CCCl)CCCl)NC(OO)CCO1 (stereo unspecified) [4-Hydroperoxy Cyclophosphamide] | > 46 |

Second part, the molecule after the results:

| IC50 of cell viability [µM] | Structure (SMILES) |
| --- | --- |
| > 46 | CCN1\C=C(\C(O)=O)C(=O)C2=C1N=C(N=C2)N3CCNCC3 [Pipemidic acid] |
| > 46 | C1C\N=C(\NC(C2CC2)C3CC3)O1 [RILMENIDINE] |
| > 46 | CC(=O)N[C@@H](CS)C(=O)O [N-acetylcysteine] |
| > 46 | CC(C)C1CCC(C(=O)NC(Cc2ccccc2)C(=O)O)CC1 (stereo unspecified) [NATEGLINIDE] |
| > 46 | CCN(Cc1ccncc1)C(=O)C(CO)c1ccccc1 (stereo unspecified) [TROPICAMIDE] |
| > 46 | COc1cc(N[S+](=O)([O-])c2ccc(N)cc2)nc(C)n1 [SULFAMETOMIDINE] |
| > 46 | CCCOc1cc(N)ccc1C(=O)OCCN(CC)CC [Propoxycaine hydrochloride] |
| > 46 | [Na+].[Na+].CO[C@@]1(NC(=O)[C@H](C([O-])=O)C2=CC=C(O)C=C2)[C@@H]3OC\C(=C(/N3C1=O)C([O-])=O)CSC4=NN=N[N]4C [Moxalactam disodium salt] |
| > 46 | Nc1ccc(O)c(C(=O)O)c1 [Mesalamine] |
| > 46 | COc1ccc(C(=O)c2ccccc2)c(O)c1 [Oxybenzone] |
| > 46 | CCCCCNC(=N)N/N=C/c1c[nH]c2ccc(OC)cc12 [TEGASEROD] |
| > 46 | Nc1ccc(C(=O)Oc2ccccc2)c(O)c1 [FENAMISAL] |
| > 46 | CC(=O)O[C@H](C)OC(=O)[C@@H](C)c1ccc(-c2ccccc2)c(F)c1 [Flurbiprofen Axetil] |
| > 46 | OC[C@@H]1O[C@](CO)(O[C@H]2O[C@H](CO)[C@@H](O)[C@H](O)[C@H]2O)[C@H](O)[C@H]1O [INULIN (HYDROXYMETHYL, C-14)] |
| > 46 | CC(CC(=O)O)(CC(=O)O)C(=O)O.CCN(CC)CCOCCOC(=O)C(CC)(CC)c1ccccc1 [OXELADIN TANNATE] |
| > 46 | COc1ccc(/C=C/C(=O)c2ccc(OC)cc2OC)cc1 [Metochalcone] |

| IC50 of cell viability [µM] | Structure (SMILES) |
| --- | --- |
| > 46 | CC(C)Oc1ccc2c(=O)c(-c3ccccc3)coc2c1 [Ipriflavone] |
| > 46 | C[C@H](O)Cn1cnc2c1c(=O)n(C)c(=O)n2C [Proxyphylline] |
| > 46 | CCN(CC)c1ccc(/N=N/c2ccc([S+](=O)([O-])N(C)C)cc2)c([S+](=O)([O-])NCC[n+]2ccccc2)c1 [ORANGE OIL] |
| > 46 | CCN(CC)C(=O)c1cccnc1 [Nikethamide] |
| > 46 | COc1ccc(-c2nc3ccc(C4=C(C)CC(=O)NN4)cc3[nH]2)cc1 [PIMOBENDAN] |
| > 46 | O=P([O-])([O-])OC(CO)CO [Glycerol phosphate calcium salt] |
| > 46 | O=C(O)C(Cc1cc(I)c(O)c(I)c1)c1ccccc1 (stereo unspecified) [PHENIODOLUM NATRICUM] |
| > 46 | CC(/C=C1\SC(=S)N(CC(=O)O)C1=O)=C\c1ccccc1 [Epalrestat] |
| > 46 | NCC1CCC(C(=O)O)CC1 (stereo unspecified) [Tranexamic acid] |
| > 46 | CN(C)CCOC1=Cc2ccccc2Sc2ccc(Cl)cc21 [Zotepine] |
| > 46 | COc1cc([C@H]2c3cc4c(cc3[C@@H](O[C@@H]3O[C@H]5CO[C@@H](C)O[C@@H]5[C@@H](O)[C@H]3O)[C@@H]3COC(=O)[C@H]23)OCO4)cc(OC)c1O [Etoposide] |
| > 46 | CC1CC2C(CC[C@]3(C)C2CC[C@@]3(OC(C)=O)C(C)=O)[C@]\4(C)CCC(=O)\C=C14 (stereo partly specified) [MEDROXYPROGESTERONE ACETATE] |
| > 46 | [O-][n+]1cccc(CO)c1 [Mepiroxol] |
| > 46 | COc1cc2c(cc1OC)[C@@H](Cc1cc(OC)c(OC)c(OC)c1)[N+](C)(CCCOC(=O)CC/C=C/CCC(=O)OCCC[N+]1(C)CCc3cc(OC)c(OC)cc3[C@H]1Cc1cc(OC)c(OC)c(OC)c1)CC2 (stereo partly specified) [MIVACURIUM CHLORIDE] |
| > 46 | O=C(O)[C@H]1CN(C/C=C/P(=O)(O)O)CCN1 [MIDAFOTELUM] |
| > 46 | O=C(CO)[C@@H](O)[C@H](O)[C@@H](O)CO [L-(-)-Sorbose] |
